In the kinase profiling compilation of Christmann-Franck et al. (2016):

Tests used:
Assay in all cases: radiometric filter-binding kinase assay, Kinase HotSpot
Details in all cases: compound 0.5 µM; ATP 10 µM
[1] = biological target: AKT3 (human) (UniProt Q9Y243)
[2] = biological target: CAMK1D (human) (UniProt Q8IU85)
[3] = biological target: CAMK2D (human) (UniProt Q13557)
[4] = biological target: CAMKK2 (human) (UniProt Q96RR4)
[5] = biological target: CDC42BPA (human) (UniProt Q5VT25)
[6] = biological target: CDK3 CCNE1 (human) (UniProt Q00526+P24864)
[7] = biological target: CDK7 CCNH MNAT1 (human) (UniProt P50613+P51948+P51946)
[8] = biological target: CHUK (human) (UniProt O15111)
[9] = biological target: CSNK1A1 (human) (UniProt P48729)
[10] = biological target: CSNK1G2 (human) (UniProt P78368)
[11] = biological target: DYRK2 (human) (UniProt Q92630)
[12] = biological target: EGFR (human) (UniProt P00533)
EGFR (human), sequence (P00533 whole entry, looked up): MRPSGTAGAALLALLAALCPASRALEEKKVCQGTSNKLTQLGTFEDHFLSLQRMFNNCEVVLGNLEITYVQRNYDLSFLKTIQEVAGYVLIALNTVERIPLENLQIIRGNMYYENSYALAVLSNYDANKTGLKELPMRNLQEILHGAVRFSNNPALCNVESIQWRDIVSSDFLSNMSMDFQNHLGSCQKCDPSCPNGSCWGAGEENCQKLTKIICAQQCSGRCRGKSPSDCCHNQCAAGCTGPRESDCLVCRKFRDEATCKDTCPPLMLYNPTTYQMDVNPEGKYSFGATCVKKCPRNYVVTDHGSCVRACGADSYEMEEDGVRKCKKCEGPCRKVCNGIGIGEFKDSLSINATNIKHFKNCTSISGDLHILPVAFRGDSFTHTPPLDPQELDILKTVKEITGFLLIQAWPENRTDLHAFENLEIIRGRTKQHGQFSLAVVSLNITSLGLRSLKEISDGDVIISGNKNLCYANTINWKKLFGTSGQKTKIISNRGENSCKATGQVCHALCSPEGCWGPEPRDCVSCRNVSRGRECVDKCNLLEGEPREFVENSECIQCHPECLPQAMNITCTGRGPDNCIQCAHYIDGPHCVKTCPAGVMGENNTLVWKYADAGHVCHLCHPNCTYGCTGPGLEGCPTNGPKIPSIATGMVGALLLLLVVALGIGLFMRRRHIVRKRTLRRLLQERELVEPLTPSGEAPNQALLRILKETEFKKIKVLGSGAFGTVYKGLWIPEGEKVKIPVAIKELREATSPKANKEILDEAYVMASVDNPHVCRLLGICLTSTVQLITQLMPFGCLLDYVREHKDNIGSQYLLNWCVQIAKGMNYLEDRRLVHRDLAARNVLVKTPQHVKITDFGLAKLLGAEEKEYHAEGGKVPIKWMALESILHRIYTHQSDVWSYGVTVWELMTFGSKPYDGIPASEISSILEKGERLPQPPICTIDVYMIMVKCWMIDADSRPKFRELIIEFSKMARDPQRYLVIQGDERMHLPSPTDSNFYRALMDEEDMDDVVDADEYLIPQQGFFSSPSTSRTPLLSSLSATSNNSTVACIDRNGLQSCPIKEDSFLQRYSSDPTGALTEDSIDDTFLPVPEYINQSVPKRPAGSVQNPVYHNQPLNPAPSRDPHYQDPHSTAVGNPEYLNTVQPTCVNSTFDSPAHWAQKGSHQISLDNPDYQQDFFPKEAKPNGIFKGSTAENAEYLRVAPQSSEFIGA

[13] = biological target: EPHA6 (human) (UniProt Q9UF33)
[14] = biological target: EPHB2 (human) (UniProt P29323)
[15] = biological target: ERBB4 (human) (UniProt Q15303)
[16] = biological target: GRK5 (human) (UniProt P34947)
[17] = biological target: GRK6 (human) (UniProt P43250)
[18] = biological target: GRK7 (human) (UniProt Q8WTQ7)
[19] = biological target: HIPK1 (human) (UniProt Q86Z02)
[20] = biological target: HIPK2 (human) (UniProt Q9H2X6)
[21] = biological target: INSRR (human) (UniProt P14616)
[22] = biological target: JAK1 JH1 catalytic (human) (UniProt P23458)
JAK1 JH1 catalytic (human), sequence (P23458 whole entry, looked up): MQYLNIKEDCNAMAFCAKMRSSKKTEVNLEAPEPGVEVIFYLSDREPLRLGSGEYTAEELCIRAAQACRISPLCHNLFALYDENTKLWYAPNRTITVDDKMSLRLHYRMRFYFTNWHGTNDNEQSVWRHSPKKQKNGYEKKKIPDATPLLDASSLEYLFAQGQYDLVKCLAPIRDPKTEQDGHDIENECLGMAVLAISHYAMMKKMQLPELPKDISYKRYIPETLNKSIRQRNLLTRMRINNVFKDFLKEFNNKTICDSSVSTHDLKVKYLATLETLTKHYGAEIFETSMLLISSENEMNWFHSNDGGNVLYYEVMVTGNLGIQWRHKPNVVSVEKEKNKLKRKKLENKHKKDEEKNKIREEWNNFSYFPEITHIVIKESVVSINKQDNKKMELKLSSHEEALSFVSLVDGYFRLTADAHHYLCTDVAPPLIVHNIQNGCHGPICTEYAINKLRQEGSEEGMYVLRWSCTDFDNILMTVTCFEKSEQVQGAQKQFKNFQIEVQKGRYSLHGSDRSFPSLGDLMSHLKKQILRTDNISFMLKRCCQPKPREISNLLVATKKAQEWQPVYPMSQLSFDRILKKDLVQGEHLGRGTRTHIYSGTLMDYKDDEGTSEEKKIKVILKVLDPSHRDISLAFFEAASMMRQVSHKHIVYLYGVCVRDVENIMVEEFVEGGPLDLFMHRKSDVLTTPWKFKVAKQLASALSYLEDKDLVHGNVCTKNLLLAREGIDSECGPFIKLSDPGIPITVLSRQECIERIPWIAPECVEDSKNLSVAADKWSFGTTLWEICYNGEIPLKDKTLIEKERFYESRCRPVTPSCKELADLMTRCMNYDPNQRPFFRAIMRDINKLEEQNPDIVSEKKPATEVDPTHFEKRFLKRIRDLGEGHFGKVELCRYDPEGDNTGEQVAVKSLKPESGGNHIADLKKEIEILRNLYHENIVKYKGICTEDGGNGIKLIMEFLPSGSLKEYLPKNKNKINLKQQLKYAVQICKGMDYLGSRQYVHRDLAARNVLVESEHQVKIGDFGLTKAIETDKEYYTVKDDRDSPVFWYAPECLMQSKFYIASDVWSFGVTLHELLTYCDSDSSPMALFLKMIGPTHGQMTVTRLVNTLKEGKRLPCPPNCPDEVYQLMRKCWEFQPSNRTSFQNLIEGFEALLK

[23] = biological target: MAPK10 (human) (UniProt P53779)
[24] = biological target: MARK1 (human) (UniProt Q9P0L2)
[25] = biological target: MATK (human) (UniProt P42679)
[26] = biological target: MKNK2 (human) (UniProt Q9HBH9)
[27] = biological target: NEK1 (human) (UniProt Q96PY6)
[28] = biological target: NUAK1 (human) (UniProt O60285)
[29] = biological target: PAK6 (human) (UniProt Q9NQU5)
PAK6 (human), sequence (Q9NQU5 whole entry, looked up): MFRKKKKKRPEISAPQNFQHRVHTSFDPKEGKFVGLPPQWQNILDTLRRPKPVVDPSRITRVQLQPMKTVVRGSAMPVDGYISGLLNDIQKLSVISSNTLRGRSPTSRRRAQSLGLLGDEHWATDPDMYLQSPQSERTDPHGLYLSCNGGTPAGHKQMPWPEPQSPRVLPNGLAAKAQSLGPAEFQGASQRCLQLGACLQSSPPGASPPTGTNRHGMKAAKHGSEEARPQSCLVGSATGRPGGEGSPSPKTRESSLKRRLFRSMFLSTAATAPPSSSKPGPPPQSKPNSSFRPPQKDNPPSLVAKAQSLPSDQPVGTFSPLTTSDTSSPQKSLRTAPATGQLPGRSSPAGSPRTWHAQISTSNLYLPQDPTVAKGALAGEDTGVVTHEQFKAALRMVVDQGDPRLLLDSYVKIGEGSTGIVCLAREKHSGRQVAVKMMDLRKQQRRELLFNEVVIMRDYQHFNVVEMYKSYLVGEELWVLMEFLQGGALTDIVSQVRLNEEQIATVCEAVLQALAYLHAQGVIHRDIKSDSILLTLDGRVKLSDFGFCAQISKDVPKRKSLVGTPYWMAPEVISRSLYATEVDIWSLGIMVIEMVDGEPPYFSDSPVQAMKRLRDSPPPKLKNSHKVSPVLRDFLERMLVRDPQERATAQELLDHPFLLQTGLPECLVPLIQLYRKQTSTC

[30] = biological target: PHKG1 (human) (UniProt Q16816)
[31] = biological target: PLK2 (human) (UniProt Q9NYY3)
[32] = biological target: PRKACG (human) (UniProt P22612)
[33] = biological target: PTK6 (human) (UniProt Q13882)
[34] = biological target: RPS6KA1 KD1 KD2 (human) (UniProt Q15418)
RPS6KA1 KD1 KD2 (human), sequence (Q15418 whole entry, looked up): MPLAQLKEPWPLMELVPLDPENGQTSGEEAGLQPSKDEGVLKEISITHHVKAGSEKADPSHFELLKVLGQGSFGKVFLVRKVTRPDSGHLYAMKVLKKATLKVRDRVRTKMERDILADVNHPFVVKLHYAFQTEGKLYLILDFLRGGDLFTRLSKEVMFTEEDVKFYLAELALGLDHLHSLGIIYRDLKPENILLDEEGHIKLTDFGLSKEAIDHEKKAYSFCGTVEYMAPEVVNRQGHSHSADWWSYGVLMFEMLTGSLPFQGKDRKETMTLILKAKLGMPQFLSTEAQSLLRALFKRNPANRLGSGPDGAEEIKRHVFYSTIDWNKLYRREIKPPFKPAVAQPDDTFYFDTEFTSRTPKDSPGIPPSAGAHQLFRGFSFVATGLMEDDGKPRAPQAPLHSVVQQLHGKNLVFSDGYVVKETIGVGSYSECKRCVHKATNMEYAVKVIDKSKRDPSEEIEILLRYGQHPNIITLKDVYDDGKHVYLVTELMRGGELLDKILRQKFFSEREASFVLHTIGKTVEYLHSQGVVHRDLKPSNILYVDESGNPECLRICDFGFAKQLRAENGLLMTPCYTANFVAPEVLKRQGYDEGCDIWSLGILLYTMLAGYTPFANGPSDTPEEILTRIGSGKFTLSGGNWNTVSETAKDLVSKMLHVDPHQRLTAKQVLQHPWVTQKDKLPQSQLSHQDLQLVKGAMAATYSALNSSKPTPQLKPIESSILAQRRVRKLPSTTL

[35] = biological target: STK24 (human) (UniProt Q9Y6E0)
[36] = biological target: STK38 (human) (UniProt Q15208)
STK38 (human), sequence (Q15208 whole entry, looked up): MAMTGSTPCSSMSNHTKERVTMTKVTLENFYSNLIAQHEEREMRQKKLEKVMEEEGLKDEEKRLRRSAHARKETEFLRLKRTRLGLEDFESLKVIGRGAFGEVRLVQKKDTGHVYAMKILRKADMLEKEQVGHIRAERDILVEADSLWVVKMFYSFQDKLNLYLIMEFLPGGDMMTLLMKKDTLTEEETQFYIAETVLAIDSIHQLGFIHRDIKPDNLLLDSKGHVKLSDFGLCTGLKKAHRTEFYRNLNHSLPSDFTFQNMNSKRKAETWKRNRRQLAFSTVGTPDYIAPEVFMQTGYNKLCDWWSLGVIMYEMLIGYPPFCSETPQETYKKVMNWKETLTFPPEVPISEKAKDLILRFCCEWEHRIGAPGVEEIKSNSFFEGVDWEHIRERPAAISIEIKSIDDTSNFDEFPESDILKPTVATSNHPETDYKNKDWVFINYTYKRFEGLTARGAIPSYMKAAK

[37] = biological target: TAOK2 (human) (UniProt Q9UL54)
[38] = biological target: TAOK3 (human) (UniProt Q9H2K8)
[39] = biological target: TEC (human) (UniProt P42680)
[40] = biological target: TLK2 (human) (UniProt Q86UE8)
[41] = biological target: TTK (human) (UniProt P33981)
[42] = biological target: ULK3 (human) (UniProt Q6PHR2)

CAMK2D (human), sequence (Q13557 whole entry, looked up): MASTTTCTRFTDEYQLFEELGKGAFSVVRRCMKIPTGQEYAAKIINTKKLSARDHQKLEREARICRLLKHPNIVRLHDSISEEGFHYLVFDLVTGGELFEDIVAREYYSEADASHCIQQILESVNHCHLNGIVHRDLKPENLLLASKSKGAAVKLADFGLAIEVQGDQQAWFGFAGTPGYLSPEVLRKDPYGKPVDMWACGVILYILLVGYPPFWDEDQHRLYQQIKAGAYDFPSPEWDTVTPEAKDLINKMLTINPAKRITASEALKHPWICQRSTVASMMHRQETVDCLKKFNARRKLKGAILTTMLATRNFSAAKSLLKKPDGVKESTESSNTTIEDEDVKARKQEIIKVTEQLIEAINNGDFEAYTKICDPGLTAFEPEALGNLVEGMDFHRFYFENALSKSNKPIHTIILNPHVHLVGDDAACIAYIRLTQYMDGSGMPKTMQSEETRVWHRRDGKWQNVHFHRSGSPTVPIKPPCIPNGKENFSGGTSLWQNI

## Cc1nc(-c2ccccc2)c(-c2ccncc2)o1
[1]
  residual activity: 106%
[2]
  residual activity: 93.9%
[3]
  residual activity: 94.2%
[4]
  residual activity: 105%
[5]
  residual activity: 91.9%
[6]
  residual activity: 98.1%
[7]
  residual activity: 109%
[8]
  residual activity: 105%
[9]
  residual activity: 86.4%
[10]
  residual activity: 92.2%
[11]
  residual activity: 98.6%
[12]
  residual activity: 89.4%
[13]
  residual activity: 95.9%
[14]
  residual activity: 99.8%
[15]
  residual activity: 92.2%
[16]
  residual activity: 104%
[17]
  residual activity: 105%
[18]
  residual activity: 98.3%
[19]
  residual activity: 102%
[20]
  residual activity: 95.5%
[21]
  residual activity: 101%
[22]
  residual activity: 103%
[23]
  residual activity: 101%
[24]
  residual activity: 92.5%
[25]
  residual activity: 90.3%
[26]
  residual activity: 90.5%
[27]
  residual activity: 103%
[28]
  residual activity: 100%
[29]
  residual activity: 103%
[30]
  residual activity: 96.1%
[31]
  residual activity: 106%
[32]
  residual activity: 108%
[33]
  residual activity: 86%
[34]
  residual activity: 103%
[35]
  residual activity: 96.7%
[36]
  residual activity: 97.3%
[37]
  residual activity: 101%
[38]
  residual activity: 99%
[39]
  residual activity: 127%
[40]
  residual activity: 110%
[41]
  residual activity: 100%
[42]
  residual activity: 94.3%
